Assay: xn = mol fraction of the nth substance listed
Settings: 101 kPa, Liquid; for speed of sound: Sing-around technique in a fixed-path interferometer; for mass density: Vibrating tube method

Cc1ccccc1C [1,2-dimethylbenzene] + CCCCCCCCCO
x1 = 1
Settings	mass density [kg/m3]	speed of sound [m/s]
298.15 K	875.363	1348.2
308.15 K	866.507	1308.2

Cc1cc(C)cc(C)c1 [1,3,5-trimethylbenzene] + CCCCCCCCCO
x1 = 1
Settings	mass density [kg/m3]	speed of sound [m/s]
298.15 K	860.862	1336
308.15 K	852.659	1296.3

Cc1cccc(C)c1 [1,3-dimethylbenzene] + CCCCCCCCCO
x1 = 1
Settings	mass density [kg/m3]	speed of sound [m/s]
298.15 K	859.867	1320.1
308.15 K	851.236	1279.1

Cc1ccc(C)cc1 [1,4-dimethylbenzene] + CCCCCCCCCO
x1 = 1
Settings	mass density [kg/m3]	speed of sound [m/s]
298.15 K	856.609	1309.5
308.15 K	847.881	1268.6

CCc1ccccc1 [ethylbenzene] + CCCCCCCCCO
x1 = 1
Settings	mass density [kg/m3]	speed of sound [m/s]
298.15 K	862.433	1318.6
308.15 K	853.607	1277.5

CCCCCCCCCO [nonan-1-ol] + CCc1ccccc1
Settings	mass density, 298.15 K [kg/m3]	mass density, 308.15 K [kg/m3]	speed of sound, 298.15 K [m/s]	speed of sound, 308.15 K [m/s]
x2 = 0	824.271	817.362	1363.1	1330.4
x2 = 0.0611	825.837	818.832	1359.7	1326.2
x2 = 0.1285	827.606	820.495	1355.8	1321.2
x2 = 0.1791	828.979	821.784	1352.3	1317.2
x2 = 0.2466	830.861	823.552	1347.6	1312
x2 = 0.3151	832.863	825.431	1342.6	1306.5
x2 = 0.3717	834.594	827.054	1338.4	1301.9
x2 = 0.4254	836.312	828.667	1334.5	1297.6
x2 = 0.5007	838.858	831.059	1329.2	1291.8
x2 = 0.5756	841.598	833.621	1324.6	1286.4
x2 = 0.6411	844.187	836.032	1321	1282.3
x2 = 0.7122	847.192	838.876	1318	1278.8
x2 = 0.7798	850.293	841.821	1316	1276.2
x2 = 0.8557	854.062	845.455	1315.2	1275
x2 = 0.9341	858.405	849.669	1316.3	1274.9

CCCCCCCCCO [nonan-1-ol] + Cc1cc(C)cc(C)c1
Settings	mass density, 298.15 K [kg/m3]	mass density, 308.15 K [kg/m3]	speed of sound, 298.15 K [m/s]	speed of sound, 308.15 K [m/s]
x2 = 0	824.271	817.362	1363.1	1330.4
x2 = 0.0696	826.211	819.181	1360.9	1327.3
x2 = 0.1267	827.826	820.708	1358.8	1324.6
x2 = 0.195	829.792	822.576	1356	1321
x2 = 0.2375	831.043	823.768	1354	1318.6
x2 = 0.3044	833.053	825.691	1350.8	1314.8
x2 = 0.362	834.839	827.405	1347.8	1311.4
x2 = 0.4358	837.211	829.683	1344.1	1307.4
x2 = 0.5112	839.754	832.121	1340.5	1303.3
x2 = 0.5777	842.112	834.381	1337.5	1300
x2 = 0.6422	844.512	836.681	1335.2	1297.5
x2 = 0.7091	847.143	839.209	1333.3	1295.2
x2 = 0.7788	850.052	841.998	1332.4	1293.7
x2 = 0.8571	853.546	845.418	1332.4	1293.1
x2 = 0.9234	856.701	848.558	1333.4	1293.8

CCCCCCCCCO [nonan-1-ol] + Cc1ccc(C)cc1
Settings	mass density, 298.15 K [kg/m3]	mass density, 308.15 K [kg/m3]	speed of sound, 298.15 K [m/s]	speed of sound, 308.15 K [m/s]
x2 = 0	824.271	817.362	1363.1	1330.4
x2 = 0.0611	825.819	818.805	1360.1	1326.3
x2 = 0.1108	827.09	819.99	1357.1	1322.6
x2 = 0.1652	828.491	821.297	1353.4	1318.2
x2 = 0.226	830.074	822.774	1349	1313.3
x2 = 0.2932	831.854	824.435	1343.9	1307.5
x2 = 0.3651	833.819	826.271	1338.4	1301.2
x2 = 0.4248	835.506	827.851	1333.5	1296.1
x2 = 0.5023	837.784	829.988	1327.5	1289.7
x2 = 0.558	839.499	831.601	1323.3	1285.2
x2 = 0.6359	842.032	833.99	1318.1	1279.6
x2 = 0.7123	844.678	836.494	1313.8	1274.8
x2 = 0.7744	846.969	838.668	1311	1271.7
x2 = 0.8514	850.015	841.569	1308.9	1269
x2 = 0.9286	853.306	844.715	1308	1268

From the NIST ThermoML archive (doi:10.1016/j.jct.2012.10.023)
